Reference: US4321254A, “Antiallergic imidodisulfamides” (SmithKline Corporation, priority 1980, dated 1982)

System: slow reacting substance of anaphylaxis (SRS-A)
Assay: Inhibition of SRS-A induced contraction of guinea pig ileum
Settings: compound concentration 5×10^-6 M, partially purified SRS-A from guinea pig lung, agonist 40 μg/ml, 15 min, 5 µM
Description: The SRS-A antagonist activity of the compounds of this invention is measured by the ability of the active medicament to inhibit SRS-A induced contraction of guinea pig ileum. In this test system, sections of ileum are resected from guinea pigs and placed in 5 ml. tissue baths containing a modified Tyrode's solution. One end of the tissue is fixed to a glass tissue holder, the other is connected to a force-displacement transducer and the tissue is placed under a tension of 500 mg. Isometric tissue contractions are recorded on a six channel polygraph. Baths are constantly aerated with 95% O2 -5% CO2. After a 20 minute stabilization period a concentration of the appropriate agonist which provides a contraction height of 60-80% of the maximum obtainable to that agonist (as determined) from full sequential concentration--response curves in separate experiments) is added to the tissue bath and the response recorded. The procedure is repeated until reproducible responses are obtained. […] Percent inhibition produced by the test compound is calculated by substracting the mean percentage change in control tissue from the mean percentage change in tissues exposed to the test compound. Additional compounds are then evaluated as long as the tissue remains reproducibly responsive to the agonist. […]

**Q.** Which “percent antagonism of SRS-A induced contraction” value does the source give for O=S(=O)(Nc1ccc2c(c1)CN(S(=O)(=O)NS(=O)(=O)N1CCc3ccc(NS(=O)(=O)c4ccc(Cl)cc4)cc3C1)CC2)c1ccc(Cl)cc1 [Compound 1, N,N'-bis[7-(4-chlorophenylsulfonamide)-1,2,3,4-tetrahydroisoquinolyl]disulfonylimide] here?
**A.** The value was 59%.
